Two compounds from patent EP0072137A1, “Antiviral deoxyuridine compounds” (BEECHAM GROUP PLC, priority 1981, dated 1983) can be followed below.

In brackets after ≈: the same amount, converted by molar mass. Like-named read-outs stand apart in the source and are kept apart here. Bounds are passed on as bounds.

Series [1] is described as follows: In vivo blood level study: antiviral activity of mouse serum titrated in plaque inhibition assays. Further details: species or system Balb/c mice. As for the experimental part:
Single 100 mg/kg doses of the compound were administered orally as suspensions in carboxymethyl cellulose to groups of 3 starved female Balb/c mice. Blood was collected 120 minutes after dosing and the serum separated and stored at -20°C. Heat inactivated sera from single mice were titrated in plaque inhibition assays using the KOS strain of Herpes simplex type 1 virus in Vero cell monolayers. Antiviral activity is calculated by extrapolation from a standard inhibition dose response curve for E-5-(2-bromovinyl)-2'-deoxyuridine and is quoted as the equivalent concentration of E-5-(2-bromovinyl)-2'-deoxyuridine (in ug/mL) giving the same antiviral activity in cell culture.

For series [2], the system named is Herpes simplex type 1 virus (HFEM strain). Kind of series: Plaque reduction assay in cell culture. It is filed as cell-based. Conditions: Human alphaherpesvirus 1, 144 h; concentration causing a 50% reduction in the number of virus plaques; HSV-1 HFEM strain in Vero cells, 37°C, 6 days; read-out: PDD50 (the source's name). Here is the method:
(§1) Vero (African Green Monkey Kidney) cells were grown to confluence in 6 well multidishes, each well being 3.5 cm in diameter. The cells were incubated with Herpes simplex type 1 virus (HFEM strain) and overlaid with 0.5 ml of 0.9% agarose (w/v) in maintenance medium containing the test compound at a range of concentrations from 100 pg/mL in half-log dilution steps. The virus infected cultures were then incubated at 37°C for 6 days before fixing in 4% formaldehyde solution and staining with carbolfuchsin. The dishes were then examined to find what concentration of test compound causing a 50% reduction in the number of virus plaques formed (PDD50 value) and the minimum concentration of test compound which killed the cell monolayer, leaving a clear zone devoid of cells and virus plaques (MTD).
(Plaque reduction counts the foci of infection that form in a cell layer.)

Series [3] is described as follows: Toxicity to the cell monolayer (MTD) in the plaque reduction assay. In kind it is cell-based. The settings on record: monkey; minimum concentration which killed the cell monolayer; Vero cells, 6 days. Here is the method: as §1

As for `O=c1[nH]c(=O)n([C@H]2C[C@H](O)[C@@H](CO)O2)cc1/C=C/Br` [E-5-(2-bromo-vinyl)-2'-deoxyuridine, E-5-(2-bromovinyl)-2'-deoxyuridine, reference compound], the concentration at 2 h in series [1] (single 100 mg/kg oral dose, suspension in carboxymethyl cellulose, starved female Balb/c mice, 120 minutes after dosing, HSV-1 KOS in Vero cell monolayers, read-out: Antiviral activity in serum, as equivalent concentration of E-5-(2-bromovinyl)-2'-deoxyuridine) came out at 1700 ± 500 ng/mL.
In the case of `Cn1c(=O)c(/C=C/Br)cn([C@H]2C[C@H](O)[C@@H](CO)O2)c1=O` [Example 1, E-3-methyl-5-(2-bromovinyl)-2'-deoxyuridine], the EC50 in series [2] was determined as 5.4 µg/mL (≈ 15.6 µM). In series [3], this compound showed an MCC at 144 h of over 100 µg/mL. In series [1] (po, 100 mg/kg), this compound registered a concentration at 2 h of 3100 ± 800 ng/mL.
